Reference: ChEMBL document CHEMBL1157539, “Thousands of chemical starting points for antimalarial lead identification” (Nature, 2010)

Tested on: Plasmodium falciparum
Assay: GSK_TCMDC: Inhibition of Plasmodium falciparum 3D7 in whole erythrocytes, using parasite LDH activity as an index of growth.
Type: functional, organism-based
Settings: Plasmodium falciparum, 3D7

Compound `COc1c(I)cc(Cc2cnc(N)nc2N)cc1I` has an XC50 of 0.93 µM.

`CN(Cc1ccc(-c2ccc(C(F)(F)F)cc2)cc1)C(=O)Cn1c(CCc2cccc(F)c2F)cc(=O)c2ccc(OCCCN3CCCCC3)cc21` was tested, and the XC50 was 0.706 µM.

For `O=C(/C=C/c1ccc(Cl)c(Cl)c1)NCCCCCCN1CCN(C(=O)Nc2ccc(Cl)c(Cl)c2)CC1`, the XC50 was 0.931 µM.

For `COc1cccc(C2CCN(CCN3CCC(NC(=O)c4ccc(-c5ccc(Cl)cc5)cc4)CC3)CC2)c1`, the XC50 was 1.09 µM.

`Cc1nc(-c2ccccc2)nc(N2CCN(C(=O)c3ccco3)CC2)c1Cc1ccccc1F` showed an XC50 of 0.927 µM.

Work on `COc1cccc(NC(=O)Cn2c(C)c(C(=O)C(F)(F)F)c3ccccc32)c1` yielded an XC50 of 0.827 µM.

Work on `CC(C)CN1CCN(c2nc(C#N)c3c(c2C(=S)NC2CCCCC2)CC(C)(C)OC3)CC1` yielded an XC50 of 0.296 µM.

`COCC(=O)N(Cc1ccccc1-c1cccc(CNCc2ccc3c(c2)OCO3)c1)C1CCN(Cc2ccccc2)CC1` was tested, and the XC50 was 0.842 µM.

Work on `CCC(C)NC(=O)CN1CN(c2ccccc2)C2(CCN(C(=O)c3ccc(-c4ccccc4)cc3)CC2)C1=O` (stereo not drawn) yielded an XC50 of 0.128 µM.

`Clc1ccc(C=NN=c2cc[nH]c3ccccc23)cc1` was tested, and the XC50 was 0.723 µM.

`COc1cc(C(=O)NC2CCN(Cc3ccccc3)CC2)ccc1-c1nc2cc(Cl)c(Cl)cc2[nH]1` gave an XC50 of 0.521 µM.

`O=C(Nc1ccc2[nH]c(-c3ccccc3)nc2c1)c1cc(-c2ccc3c(c2)OCCO3)n[nH]1` showed an XC50 of 0.769 µM.

In the case of `O=C(NC1CCN(Cc2ccccc2)CC1)c1cccc(-c2cc3cc(Cl)c(Cl)cc3[nH]2)c1`, the XC50 is reported as 0.725 µM.

`CCOc1cc(C(=O)NCCc2ccc(Cl)c(Cl)c2)ccc1-c1nc2cc(Cl)ccc2[nH]1` gave an XC50 of 0.895 µM.

In the case of `COc1ccc2[nH]cc(C3CCN(CCCCNC(=O)c4ccc(NC(=O)c5ccc(Cl)cc5)cc4)CC3)c2c1`, the XC50 is reported as 1.02 µM.

In the case of `c1ccc2oc(-c3cc4ccncc4cc3OC3CCNCC3)cc2c1`, the XC50 is reported as 1.47 µM.

For `Cn1nccc1C(=O)NCCNCc1cccc(-c2ccc(-c3nc4cc(C(F)(F)F)ccc4[nH]3)s2)c1`, the XC50 was 0.151 µM.

For `CCOc1ccc2c(=NN=Cc3c4ccccc4cc4ccccc34)cc(C)[nH]c2c1`, the XC50 was 1.07 µM.

With `COc1ccccc1-c1cccc(-c2cccc(NC(=O)c3ccc([N+](=O)[O-])o3)c2)n1` the XC50 was 0.603 µM.

With `CCCc1ccc(NC(=O)c2cccc(CN3CCCN(Cc4cccc(O)c4)CC3)c2)cc1` the XC50 was 0.748 µM.

In the case of `COc1ccc(Nc2nc(NN=Cc3cc(Br)c(O)cc3O)nc(Nc3ccc([N+](=O)[O-])cc3)n2)cc1`, the XC50 is reported as 0.896 µM.

`CC[C@H]1CN2CC[C@H]1C[C@H]2[C@H](O)c1cc(-c2ccc3ccccc3c2)nc2ccc(OC)cc12` showed an XC50 of 0.104 µM.

`CN(c1cc(NC(=O)c2cccs2)ccn1)C1CCN(Cc2ccccc2)CC1` showed an XC50 of 1.02 µM.

Compound `O=C(NCCCN1CCOCC1)c1cccc(Nc2nccc(Nc3ccc(Oc4ccccc4)cc3)n2)c1` has an XC50 of 0.766 µM.

`COc1cc(C=C(C2=NC(=O)CS2)c2nc3cccnc3n2C)ccc1O` gave an XC50 of 1 µM.

`CN1CCCC1CNS(=O)(=O)c1ccc(C(=O)NCC2CC2)cc1` (stereo not drawn) showed an XC50 of 0.174 µM.

In the case of `CC(C)COc1ccc(Cl)cc1Cc1ccc(-c2nc3ccc(C(F)(F)F)cc3[nH]2)o1`, the XC50 is reported as 0.847 µM.

`Cc1cc(F)ccc1-c1nc(Nc2ccncc2)c2ccn(C)c2n1` showed an XC50 of 0.94 µM.

In the case of `CCC(C)NCc1c(O)ccc2c(CNC(C)CC)c(O)ccc12` (stereo not drawn), the XC50 is reported as 0.592 µM.

In the case of `COc1ccc(Nc2ncc(Cl)c(Nc3cccnc3C(N)=O)n2)cc1N1CCN(C)CC1`, the XC50 is reported as 0.225 µM.

`CS(=O)(=O)c1ccc2c(c1)CCN(CCC1CCC(NC(=O)C(=Cc3ccc(Cl)cc3Cl)c3ccc(-c4ccccc4)cc3)CC1)CC2` (stereo not drawn) showed an XC50 of 1.17 µM.

`CCN(C)CCCn1c(N(C)C)nc2cc(-n3cnc4cc(-c5ccc(Cl)cc5)sc4c3=O)ccc21` gave an XC50 of 1.09 µM.

In the case of `O=C(Nc1ccc(C(F)(F)F)cc1)Nc1ccccc1N1CCNCC1`, the XC50 is reported as 0.5 µM.

With `CN1CCC(N2CCN(Cc3ccc(-c4ccc(-c5nc6cc(F)ccc6[nH]5)s4)cc3)CC2)CC1` the XC50 was 0.153 µM.

For `NC(=O)C1CCN(Cc2ccc(-c3ccc(-c4nc5cc(C(F)(F)F)ccc5[nH]4)s3)cc2)CC1`, the XC50 was 0.54 µM.

For `Cn1cccc1C(=O)Nc1cccc(-c2nn3ccccc3c2-c2ccnc(Nc3ccc4c(c3)OCCO4)n2)c1`, the XC50 was 1.35 µM.

`O=C(C=Cc1ccc(Cl)c(Cl)c1)NCCCCCN1CCCC(CCCNC(=O)c2ccc3c(c2)OCO3)C1` (stereo not drawn) showed an XC50 of 1.22 µM.

In the case of `Cc1cccc(NC(=S)NC2CCN(CCCCCNC(=O)/C=C/c3ccc(Cl)c(Cl)c3)CC2)c1`, the XC50 is reported as 0.948 µM.

`CN1CCN(c2ccc3[nH]c(-c4ccc(Cc5cc(Cl)ccc5OCc5ccccc5)o4)nc3c2)CC1` showed an XC50 of 0.807 µM.

For `CCC(C)CN1CCC(N(C)c2cc(NC(=O)c3cccc(C)c3)ccn2)CC1` (stereo not drawn), the XC50 was 0.937 µM.

For `CCCC(C)Nc1nc(C)cc(N[C@@H](Cc2ccccc2)C(=O)Nc2ccc(OC)cc2)n1` (stereo partly drawn), the XC50 was 1.12 µM.

`COc1ccc(CC(C)CON2C(N)=NC(N)=NC2(C)C)cc1` (stereo not drawn) gave an XC50 of 0.0032 µM.

In the case of `COc1cccc(-c2ccc(NC(=O)C3CCCN(Cc4cccc(OC)c4O)C3)cc2)c1` (stereo not drawn), the XC50 is reported as 0.847 µM.

Work on `c1cc(CNC2CCN(CC3CCCCC3)CC2)cc(-n2ccnc2)c1` yielded an XC50 of 0.65 µM.

Compound `Oc1ccc(Cc2ccccc2)cc1CNC1CCCCC1` has an XC50 of 0.188 µM.

Compound `COc1ccc(Cc2nc3c(n2C(C)=O)SC(c2ccc(Cl)c(Cl)c2)=NN3C(C)=O)cc1` has an XC50 of 0.809 µM.

With `OCC(CO)(CO)NCc1ccc2c3c(cccc13)-c1ccccc1-2` the XC50 was 1.26 µM.

In the case of `COc1cccc(C(=O)Nc2ccc(S(=O)(=O)c3cc4c(cc3OC)CCN(C)CC4)cc2)c1`, the XC50 is reported as 1.1 µM.

`O=S(=O)(NCCN1CCCC1)c1cccc(-c2cccc(CNCc3ccsc3)c2)c1` gave an XC50 of 0.872 µM.

In the case of `CC1(C)N=C(N)N=C(N)N1O`, the XC50 is reported as 0.192 µM.

With `Cc1cc2nc(-c3ccc(C(=O)NCc4ccc(Cl)c(Cl)c4)cc3)[nH]c2cc1C` the XC50 was 0.828 µM.

`COc1ccc(NS(=O)(=O)c2ccc(C(=O)Nc3ccc(C(F)(F)F)cc3)cc2)cc1N1CCN(CC2CC2)CC1` showed an XC50 of 0.832 µM.

`N#Cc1cccc(NC(=O)Nc2cccc(-c3cccc(-c4nc5cc(F)ccc5[nH]4)c3)c2)c1` gave an XC50 of 0.225 µM.

With `O=C(Nc1ccc(N2CCCN(Cc3cccc(F)c3)CC2)cc1)c1ccc(F)cc1` the XC50 was 0.837 µM.

In the case of `Fc1ccc2[nH]c(-c3ccc(-c4ccc(CNCCc5ccncc5)cc4)cc3)nc2c1`, the XC50 is reported as 0.142 µM.

Compound `COc1cc(CNC[C@@H](O)[C@H](Cc2ccccc2)NC(=O)c2cc(C3CCCC3)cc(N3CCCCS3(=O)=O)c2)cc(OC)c1` has an XC50 of 0.704 µM.

In the case of `COc1ccc(CNCc2ccc(F)cc2)cc1-c1ccc(OC)c(S(=O)(=O)NCCN2CCCC2)c1`, the XC50 is reported as 0.786 µM.

Work on `CN(C)CCCn1c(C(=O)OC(c2ccccc2)c2ccccc2)cc2cc(OCc3ccccc3)ccc21` yielded an XC50 of 0.201 µM.

Work on `N#Cc1ccc2[nH]cc(C(=O)CCCCCN(Cc3ccccc3)Cc3ccccc3)c2c1` yielded an XC50 of 0.785 µM.

`Cc1ccc(CN2CCCN(Cc3cccc(NC(=O)c4ccc(Cl)c(Cl)c4)c3)CC2)cc1` showed an XC50 of 0.902 µM.

Compound `O=C(Nc1cccc(-c2cccc(-c3nc4cc(C(F)(F)F)ccc4[nH]3)c2)c1)c1ccncc1` has an XC50 of 0.201 µM.

In the case of `CCCC(C)NC(=O)C(N)Cc1cccc(I)c1` (stereo not drawn), the XC50 is reported as 0.975 µM.

Work on `Cc1[nH]c(C)c(-c2ccc(OCCCc3ccccn3)cc2)c(=O)c1Br` yielded an XC50 of 0.212 µM.

`Cc1cn(CC(=O)Nc2cccc(-c3cccc(-c4nc5cc(C(F)(F)F)ccc5[nH]4)c3)c2)c(=O)[nH]c1=O` was tested, and the XC50 was 0.681 µM.

In the case of `O=C(Nc1cc(F)cc(F)c1)N[C@H]1CCN(CCCCCNC(=O)C2CC2c2ccc(Cl)c(Cl)c2)C1` (stereo partly drawn), the XC50 is reported as 1.08 µM.

Work on `Cc1cccc(Nc2nccc(NCC(O)c3ccc(C(F)(F)F)cc3)n2)c1` (stereo not drawn) yielded an XC50 of 0.555 µM.

In the case of `O=C(NCCCCCN1CCC(c2c[nH]c3ccccc23)CC1)Nc1ccc(Cl)cc1Cl`, the XC50 is reported as 0.716 µM.

`COc1cc(OC)cc(-c2nn(-c3ccc([N+](=O)[O-])cc3Cl)c(=S)n2Cc2ccco2)c1` was tested, and the XC50 was 0.838 µM.
